Results taken from ChEMBL document CHEMBL5678804 (Cancer Cell, 2011).
Values belong to the compound of their own block, whether it stands above or below them. Active and inactive are the calls of the source. The calls are words filed in the database; no cut-off is given here.

What was measured:
[1] = target: Tyrosine-protein kinase ABL1 (Homo sapiens, UniProt P00519, T315I); test: Inhibition of human ABL1 T315I mutant (229 to 499 residues) using ABLtide as substrate preincubated for 2 hrs followed by ATP addition and measured every 2 mins for […] by spectrophotometric analysis
[2] = target: Tyrosine-protein kinase ABL1 (Homo sapiens, UniProt P00519); test: Inhibition of human N-terminal his tagged native ABL1 (229 to 499 residues) expressed in Sf9 cells using ABLtide as substrate preincubated for 2 hrs followed by ATP addition and measured every 2 mins for […] by spectrophotometric analysis
BaF3 [3] = test: Antitumor activity against mouse BaF3 cells harbouring BCR-ABL1 T315I mutant xenografted in Balb/c mouse model assessed as prolongation of animal survival at 100 mg/kg, po administered twice daily for 21 days; type: functional, organism-based; details: time 21.0 day
BaF3 [4] = test: cells; details: Mus musculus, BaF3, 72 h
BaF3 [5] = test: cells; details: Mus musculus, BaF3, 72 h; remark: listed apart in the source
BaF3 [6] = test: cells; details: Mus musculus, BaF3, 72 h; remark: listed apart in the source
BaF3 [7] = test: cells; details: Mus musculus, BaF3, 72 h; remark: listed apart in the source
BaF3 [8] = test: cells; details: Mus musculus, BaF3, 72 h; remark: listed apart in the source
BaF3 [9] = test: cells; details: Mus musculus, BaF3, 72 h; remark: listed apart in the source
BaF3 [10] = test: cells; details: Mus musculus, BaF3, 72 h; remark: listed apart in the source
BaF3 [11] = test: cells; details: Mus musculus, BaF3, 72 h; remark: listed apart in the source
BaF3 [12] = test: cells; details: Mus musculus, BaF3, 72 h; remark: listed apart in the source
BaF3 [13] = test: cells; details: Mus musculus, BaF3, 72 h; remark: listed apart in the source
BaF3 [14] = test: cells; details: Mus musculus, BaF3, 72 h; remark: listed apart in the source
BaF3 [15] = test: cells; details: Mus musculus, BaF3, 72 h; remark: listed apart in the source
BaF3 [16] = test: cells; details: Mus musculus, BaF3, 72 h; remark: listed apart in the source
BaF3 [17] = test: cells; details: Mus musculus, BaF3, 72 h; remark: listed apart in the source
BaF3 [18] = test: cells; details: Mus musculus, BaF3, 72 h; remark: listed apart in the source
Crk-like protein = Crk-like protein (Mus musculus, UniProt P47941, T315I); test: Inhibition of CrkL in mouse BaF3 cells harbouring BCR-ABL1 T315I mutant measured after 6 hrs by immunoblotting analysis; type: cell-based
BaF3 [19] = test: cells; details: Mus musculus, BaF3, 72 h; remark: listed apart in the source

Sequence of Crk-like protein (P47941 whole entry, looked up, stated change not applied): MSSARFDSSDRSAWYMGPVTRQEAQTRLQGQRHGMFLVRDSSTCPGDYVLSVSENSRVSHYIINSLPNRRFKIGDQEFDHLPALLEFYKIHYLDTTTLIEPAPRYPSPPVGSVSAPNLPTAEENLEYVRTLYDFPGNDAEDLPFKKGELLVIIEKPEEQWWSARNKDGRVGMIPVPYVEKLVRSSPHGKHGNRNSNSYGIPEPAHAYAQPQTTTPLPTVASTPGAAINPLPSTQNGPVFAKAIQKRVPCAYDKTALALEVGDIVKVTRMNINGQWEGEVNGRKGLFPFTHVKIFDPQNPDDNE

IC50 [1]: 80 nM | IC50 [2]: 88 nM
Structure (SMILES): CNC(=O)c1cc(Oc2ccc(NC(=O)Nc3cc(C(C)(C)C)nn3C)c(F)c2)ccn1

IC50 [1]: 17 nM | IC50 [2]: 9 nM
Structure (SMILES): CNC(=O)c1cc(Oc2ccc(NC(=O)Nc3cc(C(C)(C)C)nn3-c3ccc4c(c3)CCNC4)c(F)c2)ccn1

Structure (SMILES): Cc1ccc(NC(=O)c2ccc(CN3CCN(C)CC3)cc2)cc1Nc1nccc(-c2cccnc2)n1 [IMATINIB]
Activity (BaF3 [3]): inactive

IC50 (BaF3 [4]): 130 nM | IC50 (BaF3 [5]): 84 nM | IC50 (BaF3 [6]): 180 nM | IC50 (BaF3 [7]): 65 nM | IC50 (BaF3 [8]): 200 nM | IC50 (BaF3 [9]): 80 nM | IC50 (BaF3 [10]): 160 nM | IC50 (BaF3 [11]): 110 nM | IC50 (BaF3 [12]): 190 nM | IC50 (BaF3 [13]): 84 nM | IC50 (BaF3 [14]): 88 nM | IC50 (BaF3 [15]): 74 nM | IC50 (BaF3 [16]): 190 nM | IC50 (BaF3 [17]): 130 nM | IC50 (BaF3 [18]): 104 nM
Structure (SMILES): Cc1cc(Nc2cc(N3CCN(C)CC3)nc(Sc3ccc(NC(=O)C4CC4)cc3)n2)n[nH]1 [TOZASERTIB]

Structure (SMILES): Cc1cn(-c2cc(NC(=O)c3ccc(C)c(Nc4nccc(-c5cccnc5)n4)c3)cc(C(F)(F)F)c2)cn1 [NILOTINIB]
IC50 (Crk-like protein): > 5000 nM | IC50 (BaF3 [19]): 9500 nM | IC50 (BaF3 [16]): 95 nM

IC50 (BaF3 [4]): 2.7 nM | IC50 (Crk-like protein): > 5000 nM | IC50 (BaF3 [5]): 8 nM | IC50 (BaF3 [6]): 2.8 nM | IC50 (BaF3 [7]): 1.1 nM | IC50 (BaF3 [8]): 8 nM | IC50 (BaF3 [9]): 2 nM | IC50 (BaF3 [10]): 1.2 nM | IC50 (BaF3 [19]): 3800 nM | IC50 (BaF3 [11]): 7.3 nM | IC50 (BaF3 [12]): 1 nM | IC50 (BaF3 [13]): 2.3 nM | IC50 (BaF3 [14]): 65 nM | IC50 (BaF3 [16]): 2 nM | IC50 (BaF3 [17]): 0.3 nM | IC50 (BaF3 [18]): 0.4 nM
Structure (SMILES): Cc1nc(Nc2ncc(C(=O)Nc3c(C)cccc3Cl)s2)cc(N2CCN(CCO)CC2)n1 [DASATINIB ANHYDROUS]

Structure (SMILES): CC(C)(C)c1cc(NC(=O)Nc2cccc(Cl)c2Cl)n(-c2ccc3c(c2)C[C@@H](C(=O)O)NC3)n1
IC50 [1]: 773 nM | IC50 [2]: 57 nM

IC50 [1]: 711 nM
Structure (SMILES): CC(C)(C)c1cc(NC(=O)Nc2cccc(Cl)c2Cl)n(-c2ccc3ncccc3c2)n1
